Measured values published in patent US9776991B2, “Thienomethylpiperazine derivatives as inhibitors of soluble epoxide hydrolase” (SANOFI, priority 2013, dated 2017).
Structures can show the parent of a compound that is named as a salt.

Target: recombinant sEH (soluble epoxide hydrolase, EPHX2) (Homo sapiens (Human), UniProt P34913)
Test: biochemical fluorometric sEH inhibition assay with Phome substrate
Details: recombinant sEH purified from Sf9 insect cells, 2 nM sEH, 5 μM Phome, 60 minutes at 30° C.
Procedure: Compounds were tested in a biochemical screening assay using recombinant sEH purified from Sf9 insect cells and an artificial substrate, (3-phenyl-oxiranyl)-acetic acid cyano-(6-methoxy-naphtalen-2-yl)-methyl ester, Phome. The biochemical assay was performed in analogy to a fluorometric described in the literature (P. D. Jones et al., Anal. Biochem. 2005, 343, 66-75). The assay principle bases on the sEH-catalyzed hydrolysis of an artificial α-cyano-ester substrate. O-deacetylation liberates a cyanohydrin intermediate that rapidly decomposes to the highly fluorescent 6-methoxy-2-naphtaldehyde. To discriminate sample autofluorescence, the assay was carried out as a kinetic measurement with two time points. The first measurement is performed immediately before addition of the substrate and the […] measurement is done after completion of the assay. The assay format is either in 96- or in 384-well format.
Details of the assay using a 96-well plate format are described below. 40 μl recombinant sEH enzyme and 5 μl test compound are pre-incubated for 15 minutes at 30° C. Following pre-incubation, the reaction is started by addition of 5 μl Phome. The assay mixture containing 2 nM final sEH concentration, test compound ranging in a concentration from 0.0001-10 μM and 5 μM Phome is incubated for 60 minutes at 30° C.
Fluorescence is measured with any suitable detector for instance a TECAN Safire or Tecan Ultra at […]. % inhibition of recombinant sEH activity is used for calculation of corresponding IC50 values as illustrated and described in the examples.
The NCBI gene bank reference sequence with the accession number NM_001979 for EPHX2/sEH was applied for recombinant protein production:
The following commercially available materials have been used: • Incubation reagent: 25 mM Hepes (Sigma-Aldrich, Cat. No H-3375), 0.01% bovine albumin (Sigma-Aldrich Cat. No PA9205) • Substrate: 3-Phenyl-oxiranyl)-acetic acid cyano-(6-methoxy-naphtalen-2-yl)-methyl ester, Phome (Biozol Cat. No 10003134) • Microtiter plates: 96-well plates (Greiner Cat. No 655180; Costar Cat. No 3915)

recombinant sEH (soluble epoxide hydrolase, EPHX2), sequence (P34913 whole entry): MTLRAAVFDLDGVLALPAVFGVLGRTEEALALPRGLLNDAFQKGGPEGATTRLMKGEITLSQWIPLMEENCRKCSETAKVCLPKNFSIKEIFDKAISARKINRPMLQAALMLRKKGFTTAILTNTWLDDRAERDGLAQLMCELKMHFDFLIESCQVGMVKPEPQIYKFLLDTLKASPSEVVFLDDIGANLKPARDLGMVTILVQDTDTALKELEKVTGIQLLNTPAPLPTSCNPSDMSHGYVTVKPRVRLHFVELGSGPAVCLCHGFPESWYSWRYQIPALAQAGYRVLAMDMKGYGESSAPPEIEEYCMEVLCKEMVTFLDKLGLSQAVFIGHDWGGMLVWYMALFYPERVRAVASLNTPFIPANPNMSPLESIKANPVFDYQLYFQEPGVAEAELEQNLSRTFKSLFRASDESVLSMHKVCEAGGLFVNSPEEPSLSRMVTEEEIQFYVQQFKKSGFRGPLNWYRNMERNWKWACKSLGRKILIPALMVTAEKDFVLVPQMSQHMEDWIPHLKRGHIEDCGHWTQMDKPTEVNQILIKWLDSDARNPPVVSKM

SMILES | IC50 [nM]
O=C(NCc1ccccc1C(F)(F)F)c1ccc(CN2CCN(C(=O)c3ccc(F)cc3Cl)CC2)s1 [Example 64] | 1.25
O=C(NCc1ccc(Cl)cc1Cl)c1ccc(CN2CCN(C(=O)c3nccc4ccccc34)CC2)s1 [Example 65] | 1.19
O=C(NCc1ccccc1OC(F)(F)F)c1ccc(CN2CCN(C(=O)c3ccc[nH]c3=O)CC2)s1 [Example 66] | 1.25
COc1ccc(OC)c(C(=O)N2CCN(Cc3ccc(C(=O)NCc4ccccc4OC(F)(F)F)s3)CC2)n1 [Example 67] | 1.21
COCC1(C(=O)N2CCN(Cc3ccc(C(=O)NCc4ccccc4OC(F)(F)F)s3)CC2)CC1 [Example 68] | 1.19
O=C(NCc1ccc(Cl)cc1Cl)c1ccc(CN2CCN(C(=O)Cc3ccccc3Cl)CC2)s1 [Example 69] | 2.61
O=C(NCc1ccc(Cl)cc1Cl)c1ccc(CN2CCN(C(=O)C3Cc4ccccc43)CC2)s1 (stereo not drawn) [Example 70] | 2.62
Cc1cccc(C(=O)N2CCN(Cc3ccc(C(=O)NCc4ccccc4OC(F)(F)F)s3)CC2)n1 [Example 72] | 2.59
O=C(NCc1ccccc1OC(F)(F)F)c1ccc(CN2CCN(c3cnccn3)CC2)s1 [Example 73] | 2.59
CNC(=O)c1cccnc1N1CCN(Cc2ccc(C(=O)NCc3ccc(OC)cc3OC(F)(F)F)s2)CC1 [Example 74] | 2.66
O=C(NCc1ccccc1C(F)(F)F)c1ccc(CN2CCN(C(=O)C3(c4ccccc4)CC3)CC2)s1 [Example 75] | 2.55
O=C(NCc1ccccc1C(F)(F)F)c1ccc(CN2CCN(C(=O)[C@@H]3C[C@H]3c3ccccc3)CC2)s1 [Example 76] | 2.53
O=C(NCc1ccc(Cl)cc1Cl)c1ccc(CN2CCN(C(=O)c3ccccn3)CC2)s1 [Example 77] | 2.49
CCCn1nccc1CNC(=O)c1ccc(CN2CCN(C(=O)c3c(C)cc(=O)oc3C)CC2)s1 [Example 78] | 2.54
Cc1ccc(O)c(C(=O)N2CCN(Cc3ccc(C(=O)NCc4ccccc4OC(F)(F)F)s3)CC2)n1 [Example 79] | 2.54
Cc1cc(=O)oc(C)c1C(=O)N1CCN(Cc2ccc(C(=O)NCc3ccc(C#N)cc3Cl)s2)CC1 [Example 80] | 2.53
O=C(NCc1ccccc1C(F)(F)F)c1ccc(CN2CCN(C(=O)c3c(Cl)cccc3Cl)CC2)s1 [Example 81] | 2.36
O=C(NCc1ccccc1OC(F)(F)F)c1ccc(CN2CCN(C(=O)c3ncccc3O)CC2)s1 [Example 82] | 2.37
COCCOCC(=O)N1CCN(Cc2ccc(C(=O)NCc3ccccc3OC(F)(F)F)s2)CC1 [Example 83] | 2.37
O=C(NCc1ccc(Cl)cc1Cl)c1ccc(CN2CCN(C3CCCC3)C(=O)C2)s1 [Example 84] | 2.35
O=C(NCc1ccccc1OC(F)(F)F)c1ccc(CN2CCN(C3CCS(=O)(=O)C3)CC2)s1 (stereo not drawn) [Example 85] | 2.44

SMILES | IC50 [nM]
CC1(C)CC[C@@H](C(=O)N2CCN(Cc3ccc(C(=O)NCc4ccccc4OC(F)(F)F)s3)CC2)N1 [Example 86] | 2.38
O=C(NCc1ccccc1OC(F)(F)F)c1ccc(CN2CCN(c3ccc(CO)cn3)CC2)s1 [Example 87] | 2.41
Cc1noc(C)c1C(=O)N1CCN(Cc2ccc(C(=O)NCc3ccccc3C(F)(F)F)s2)CC1 [Example 88] | 1.44
O=C(NCc1ccc(Cl)cc1Cl)c1ccc(CN2CCN(C(=O)c3cccnc3)CC2)s1 [Example 89] | 1.4
CCc1oncc1C(=O)N1CCN(Cc2ccc(C(=O)NCc3ccc(Cl)cc3Cl)s2)CC1 [Example 90] | 1.43
Cc1cc(=O)oc(C)c1C(=O)N1CCN(Cc2ccc(C(=O)NCc3cccc(Cl)c3Cl)s2)CC1 [Example 91] | 1.42
CC(O)CC(=O)N1CCN(Cc2ccc(C(=O)NCc3ccccc3OC(F)(F)F)s2)CC1 (stereo not drawn) [Example 92] | 1.39
CO[C@H](C)C(=O)N1CCN(Cc2ccc(C(=O)NCc3ccccc3OC(F)(F)F)s2)CC1 [Example 93] | 1.31
O=C(NCc1ccccc1OC(F)(F)F)c1ccc(CN2CCN(C(=O)[C@@H]3CCC[C@@H]3O)CC2)s1 [Example 94] | 1.5
CCC(C)(O)C(=O)N1CCN(Cc2ccc(C(=O)NCc3ccccc3OC(F)(F)F)s2)CC1 (stereo not drawn) [Example 95] | 1.51
CC[C@@H](O)C(=O)N1CCN(Cc2ccc(C(=O)NCc3ccccc3OC(F)(F)F)s2)CC1 [Example 96] | 1.57
COc1cccnc1C(=O)N1CCN(Cc2ccc(C(=O)NCc3ccccc3OC(F)(F)F)s2)CC1 [Example 97] | 1.6
CC(C(=O)N1CCN(Cc2ccc(C(=O)NCc3ccccc3C(F)(F)F)s2)CC1)c1ccccc1 (stereo not drawn) [Example 98] | 1.52
CCn1nc(C)c(Br)c1C(=O)N1CCN(Cc2ccc(C(=O)NCCC(C)C)s2)CC1 [Example 99] | 1.53
O=C(NCc1ccc(Cl)cc1Cl)c1ccc(CN2CCN(C(=O)Cc3cccc(C(F)(F)F)c3)CC2)s1 [Example 100] | 2.3
CC(C)[C@@H](O)C(=O)N1CCN(Cc2ccc(C(=O)NCc3ccccc3OC(F)(F)F)s2)CC1 [Example 101] | 2.28
O=C1CCC(C(=O)N2CCN(Cc3ccc(C(=O)NCc4ccccc4OC(F)(F)F)s3)CC2)N1 (stereo not drawn) [Example 102] | 2.33
CC1(C)SCN[C@H]1C(=O)N1CCN(Cc2ccc(C(=O)NCc3ccc(Cl)cc3Cl)s2)CC1 [Example 103] | 2.32
COc1ccc(CNC(=O)c2ccc(CN3CCn4cnnc4C3)s2)c(OC(F)(F)F)c1 [Example 104] | 2.33
Cc1cccnc1N1CCN(Cc2ccc(C(=O)NCc3ccc(Cl)cc3Cl)s2)CC1=O [Example 105] | 2.33
O=C(NCc1ccccc1OC(F)(F)F)c1ccc(CN2CCN(C(=O)CCO)CC2)s1 [Example 106] | 2.18

SMILES | IC50 [nM]
O=C(NCc1ccccc1OC(F)(F)F)c1ccc(CN2CCN(C(=O)c3c[nH]cnc3=O)CC2)s1 [Example 107] | 2.26
Cn1ncc(N2CCN(Cc3ccc(C(=O)NCc4ccc(Cl)cc4Cl)s3)CC2)cc1=O [Example 108] | 2.15
NC1(C(=O)N2CCN(Cc3ccc(C(=O)NCc4ccc(Cl)cc4Cl)s3)CC2)CC1 [Example 109] | 2.16
CC1(C)SCN[C@H]1C(=O)N1CCN(Cc2ccc(C(=O)NCc3ccccc3OC(F)(F)F)s2)CC1 [Example 110] | 2.16
O=C(NCc1ccccc1OC(F)(F)F)c1ccc(CN2CCN(CC(F)(F)F)C(=O)C2)s1 [Example 111] | 2.23
Cc1cccnc1N1CCN(Cc2ccc(C(=O)NCc3ccccc3OC(F)(F)F)s2)CC1=O [Example 112] | 1.64
COc1ccc(CNC(=O)c2ccc(CN3CCN(c4nccn4C)CC3)s2)c(OC(F)(F)F)c1 [Example 113] | 1.67
O=C(NCc1ccc(Cl)cc1Cl)c1ccc(CN2CCN3C(=O)CCC3C2)s1 (stereo not drawn) [Example 114] | 1.67
NC1(C(=O)N2CCN(Cc3ccc(C(=O)NCc4ccccc4OC(F)(F)F)s3)CC2)CC1 [Example 115, 5-[4-(1-Amino-cyclopropanecarbonyl)-piperazin-1-ylmethyl]-thiophene-2-carboxylic acid 2-trifluoromethoxy-benzylamide, trifluoroacetate] | 1.64
COCCC(=O)N1CCN(Cc2ccc(C(=O)NCc3ccccc3OC(F)(F)F)s2)CC1 [Example 116] | 1.6
CCc1oncc1C(=O)N1CCN(Cc2ccc(C(=O)NCc3ccccc3C(F)(F)F)s2)CC1 [Example 117] | 1.64
CCOc1ccccc1C(=O)N1CCN(Cc2ccc(C(=O)NCCC(C)C)s2)CC1 [Example 118] | 1.72
O=C(NCc1ccccc1C(F)(F)F)c1ccc(CN2CCN(C(=O)c3ccccc3F)CC2)s1 [Example 119] | 1.68
Cc1cc(N2CCN(Cc3ccc(C(=O)NCc4ccc(Cl)cc4Cl)s3)CC2)cc(C)n1 [Example 120, 5-[4-(2,6-Dimethyl-pyridin-4-yl)-piperazin-1-ylmethyl]-thiophene-2-carboxylic acid 2,4-dichloro-benzylamide] | 5.3
O=C(NCc1ccccc1OC(F)(F)F)c1ccc(CN2CCN(C(=O)c3ccccn3)CC2)s1 [Example 121] | 1.68
Cc1noc(C)c1C(=O)N1CCN(Cc2ccc(C(=O)NCc3ccccc3OC(F)(F)F)s2)CC1 [Example 122] | 1.74
CC(C)(O)C(=O)N1CCN(Cc2ccc(C(=O)NCc3ccccc3OC(F)(F)F)s2)CC1 [Example 123] | 1.69
COc1ccc(CNC(=O)c2ccc(CN3CCN(c4ccccn4)CC3)s2)c(OC(F)(F)F)c1 [Example 124] | 1.69
O=C(NCc1ccccc1OC(F)(F)F)c1ccc(CN2CCN(CCO)CC2)s1 [Example 125] | 1.68
COc1ccc(CNC(=O)c2ccc(CN3CCN(c4ncccc4C)C(=O)C3)s2)c(OC(F)(F)F)c1 [Example 126] | 1.75
COc1ccc(CNC(=O)c2ccc(CN3CCN(c4cc(C)ccn4)CC3)s2)c(OC(F)(F)F)c1 [Example 127] | 1.73
